Laboratory results as given in patent publication US12084462B2, “Spiro bicyclic inhibitors of menin-MLL interaction” (Janssen Pharmaceutica NV, priority 2016, dated 2024).
Where “and” joins values, the source holds several entries; their conditions need not be identical. Equal values may be shown once. Read-outs that look alike come from different tables or passages of the source.

Key:
[1] = system: MOLM14; test: Proliferation assay (spheroid assay) MOLM14; assay type: cell-based, human
Summary of the method: (§1)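 Cells grown as spheroids in ultra-low attachment round-bottom wells with compound at varied concentrations (0.3% DMSO) for 8 d at 37 °C; confluence imaged every 4 h. AUC of confluence over time (t=0 baseline) expressed as % of vehicle control; absolute IC50 from nonlinear least-squares fit.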

[2] = molecular target: T1, menin (Homo sapiens, UniProt O00255, T541A); test: Menin/MLL fluorescence polarization (FP) assay; assay type: binding
T1 sequence (O00255 with tags, fused parts or gaps T541A): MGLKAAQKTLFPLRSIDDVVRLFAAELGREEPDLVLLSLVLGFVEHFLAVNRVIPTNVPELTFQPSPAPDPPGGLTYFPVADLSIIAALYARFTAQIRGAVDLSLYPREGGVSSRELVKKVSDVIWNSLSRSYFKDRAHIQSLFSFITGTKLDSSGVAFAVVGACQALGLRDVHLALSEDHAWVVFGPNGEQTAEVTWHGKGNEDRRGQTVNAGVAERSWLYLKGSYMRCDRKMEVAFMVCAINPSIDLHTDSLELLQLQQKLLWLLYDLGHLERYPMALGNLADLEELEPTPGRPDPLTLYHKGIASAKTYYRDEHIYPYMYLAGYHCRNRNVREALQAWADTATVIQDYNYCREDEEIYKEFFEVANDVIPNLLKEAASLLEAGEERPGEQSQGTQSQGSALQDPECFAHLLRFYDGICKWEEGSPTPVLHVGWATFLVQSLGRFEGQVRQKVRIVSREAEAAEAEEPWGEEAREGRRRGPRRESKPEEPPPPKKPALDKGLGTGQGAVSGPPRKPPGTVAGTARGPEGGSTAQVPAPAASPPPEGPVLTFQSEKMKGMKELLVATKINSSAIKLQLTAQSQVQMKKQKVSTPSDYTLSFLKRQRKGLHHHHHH
Procedure: 1) Menin/MLL Fluorescence Polarization Assay
To a non-surface binding, black 384-well microtiter plate was added 50 nL 160× test compound in DMSO and 4 μL 2× menin in assay buffer (40 mM Tris·HCl, pH 7.5, 50 mM NaCl, 1 mM DTT and 0.001% Tween 20). After incubation of test compound and menin for 10 min at ambient temperature, 4 μL 2×FITC-MBM1 peptide (FITC-β-alanine-SARWRFPARPGT-NH2 (SEQ ID NO: 2)) in assay buffer was added, the microtiter plate centrifuged at 1000 rpm for 1 min and the assay mixtures incubated for 15 min at ambient temperature. The relative amount of menin·FITC-MBM1 complex present in an assay mixture is determined by measuring the fluorescence polarization (FP) of the FITC label with a BMG Pherastar plate reader (ex. 485 nm/em. 520 nm) at ambient temperature. The final concentrations of reagents in the binding assay are 100 nM menin, 5 nM FITC-MBM1 peptide and 0.625% DMSO in assay buffer. Dose-response titrations of test compounds are conducted using an 11 point, three-fold serial dilution scheme, starting at 31 μM.
Compound potencies were determined by first calculating % inhibition at each compound concentration according to equation 1: % inhibition=((HC−LC)−(FP^compound−LC))/(HC−LC))*100 (Eqn 1)
Where LC and HC are the FP values of the assay in the presence or absence of a saturating concentration of a compound that competes with FITC-MBM1 for binding to menin, and FP^compound is the measured FP value in the presence of the test compound. HC and LC FP values represent an average of at least 16 replicates per plate. […] 2) Proliferation Assay

[3] = system: KG1; test: Proliferation assay (spheroid assay) KG1, control cell line; assay type: cell-based; details: Homo sapiens
Procedure: (§2) The anti-proliferative effect of menin/MLL protein/protein interaction inhibitor test compounds was assessed in human leukemia cell lines. The cell lines MV-4-11 and MOLM14 harbor MLL translocations and express the MLL fusion proteins MLL-AF4 and MLL-AF9, respectively, as well as the wildtype protein from the second allele. […] K562 and KG1 were used as a control cell lines containing two MLL wildtype alleles in order to exclude compounds that display general cytotoxic effects.
(§3) MV-4-11 and MOLM14 were cultured in RPMI-1640 (Sigma Aldrich) supplemented with 10% fetal bovine serum (HyClone), 2 mM L-glutamine (Sigma Aldrich) and 50 μg/ml gentamycin (Gibco). K562 were propagated in RPMI-1640 (Sigma Aldrich) supplemented with 20% fetal bovine serum (HyClone), 2 mM L-glutamine (Sigma Aldrich) and 50 μg/ml gentamycin (Gibco). KG1 were cultured in Iscove's MDM (Gibco) supplemented with 20% fetal bovine serum (HyClone), 2 mM L-glutamine (Sigma Aldrich) and 50 μg/ml gentamycin (Gibco).
(§4) In order to assess the anti-proliferative effects, 1,500 MV-4-11, 300 MOLM14, 750 K562 or 1,300 KG1 cells were seeded in 200 μl media per well in 96-well round bottom, ultra-low attachment plates (Costar, catalogue number 7007). Cell seeding numbers were chosen based on growth curves to ensure linear growth throughout the experiment. Test compounds were added at different concentrations and the DMSO content was normalized to 0.3%. Cells were incubated for 8 d at 37° C. and 5% CO2. Spheroid like growth was monitored in real-time by live-cell imaging (IncuCyteZOOM, Essenbio, 4× objective) acquiring one image every four hours for 8 d. Confluence (%) as a measure of spheroid size was determined using an integrated analysis tool.
(§5) In order to determine the cumulative effect of the test compounds over time, the area under the curve (AUC) in a plot of confluence against time was calculated. Confluence at the beginning of the experiment (t=0) was used as baseline for the AUC calculation.
(§6) Absolute IC50 values were calculated according to the following procedure: % Control=(AUC sample/AUC control)*100 AUC control=mean AUC of control values (cells without compound/DMSO as vehicle control)
(§7) A non-linear curve fit was applied using the least squares (ordinary) fit method to the plot of % control versus compound concentration. Based on this, the absolute IC50 value (half maximal inhibitory concentration of the test compound causing an anti-proliferative effect of 50% relative to the vehicle control) was calculated.

[4] = system: K562; test: Proliferation assay (spheroid assay) K562, control cell line; assay type: cell-based; details: Homo sapiens
Procedure: as §2, §3, §4, §5, §6, §7

[5] = system: MV-4-11; test: Proliferation assay (spheroid assay) MV-4-11; assay type: cell-based, human
Summary of the method: as §1

[6] = MOLM14 (MLL-AF9), 8 d, absolute IC50 from AUC of confluence, individual measurements (not averaged), read-out: (2) Spheroid assay MOLM14 (IC50 (μM))
[7] = 100 nM menin, 5 nM FITC-MBM1 peptide, individual measurements (not averaged), read-out: (1) Menin FP assay (IC50 (μM))
[8] = KG-1, 192 h, KG1 (MLL wildtype control), 8 d, absolute IC50 from AUC of confluence, individual measurements (not averaged), read-out: (2) Spheroid assay KG1 (IC50 (μM))
[9] = Homo sapiens, MOLM-14, MOLM14, averaged values, read-out: Spheroid assay MOLM14 (IC50 (μM))
[10] = KG-1, KG1 control cell line, averaged values, read-out: Spheroid assay KG1 (IC50 (μM))
[11] = Homo sapiens, MV4-11, MV-4-11, averaged values, read-out: Spheroid assay MV-4-11 (IC50 (μM))
[12] = K562 control cell line, averaged values, read-out: Spheroid assay K562 (IC50 (μM))

FC(F)(F)Cc1cc2c(N3CC[C@]4(CCN(Cc5ccccc5)C4)C3)ncnc2s1 (single isomer, unassigned) [Compound 20b] was tested, and the IC50 [1, 6] was > 15 µM and 2.5 µM, the IC50 [2, 7] was 0.038 µM and the IC50 [3, 8] was > 15 µM. The IC50 ([4]; 192 h, K562 (MLL wildtype control), 8 d, absolute IC50 from AUC of confluence, individual measurements (not averaged), read-out: (2) Spheroid assay K562 (IC50 (μM))) was > 15 µM and the IC50 ([5]; Homo sapiens, MV4-11, 192 h, MV-4-11 (MLL-AF4), 8 d, absolute IC50 from AUC of confluence, individual measurements (not averaged), read-out: (2) Spheroid assay MV-4-11 (IC50 (μM))) was 0.51 µM.
Compound N#Cc1cc2cc(CN3CC4(CCN(c5ncnc6sc(CC(F)(F)F)cc56)C4)C3)ccc2[nH]1 [Compound 17] has an IC50 ([1]; Homo sapiens, MOLM-14, 192 h, MOLM14 (MLL-AF9), 8 d, absolute IC50 from AUC of confluence, individual measurements (not averaged), read-out: (2) Spheroid assay MOLM14 (IC50 (μM))) of 3.4 µM, an IC50 [1, 6] of 2.3 µM and an IC50 [2, 7] of 0.054 µM. For the same compound, the IC50 [3, 8] was 11 µM and the IC50 ([5]; MV-4-11 (MLL-AF4), 8 d, absolute IC50 from AUC of confluence, individual measurements (not averaged), read-out: (2) Spheroid assay MV-4-11 (IC50 (μM))) was 4.9 µM and 0.76 µM and 0.84 µM.
With CC(C)C(c1cnn(CCO)c1)N1CC2(CCN(c3ncnc4sc(CC(F)(F)F)cc34)C2)C1 (stereo not shown) [Compound 62] the IC50 [1, 9] was 4 µM, the IC50 [3, 10] was > 15 µM and the IC50 [5, 11] was 0.64 µM.
In the case of C[C@@H]1CN[C@H](C(=O)N2CC3(C2)CN(c2ncnc4sc(CC(F)(F)F)cc24)C3)C1 [Compound 82], the IC50 [1, 9] is reported as 1.8 µM, the IC50 [3, 10] is reported as > 15 µM and the IC50 [4, 12] is reported as > 15 µM. It also gave an IC50 [5, 11] of 0.38 µM.
For CC(Cc1ccc(F)cc1)N1CC2(CCN(c3ncnc4sc(CC(F)(F)F)cc34)C2)C1 (stereo not shown) [Compound 84], the IC50 [1, 9] was 1.5 µM, the IC50 [3, 10] was > 15 µM and the IC50 [5, 11] was 0.58 µM.
CC(C)[C@H](C1CCNCC1)N1CC2(CCN(c3ncnc4sc(CC(F)(F)F)cc34)C2)C1 [Compound 168] showed an IC50 [1, 9] of 0.86 µM, an IC50 [3, 10] of 15 µM and an IC50 [4, 12] of 11.9 µM. The IC50 [5, 11] was 0.19 µM.
In the case of CC(C)C(Cc1ccccc1)N1CC2(CCN(c3ncnc4sc(CC(F)(F)F)cc34)C2)C1 (stereo not shown) [Compound 182], the IC50 [1, 9] is reported as 1.9 µM, the IC50 [3, 10] is reported as > 15 µM and the IC50 [5, 11] is reported as 0.78 µM.
For CC(C)[C@H](C1CCOCC1)N1CC2(CCN(c3ncnc4sc(CC(F)(F)F)cc34)C2)C1 [Compound 193], the IC50 [1, 9] was 1.7 µM, the IC50 [3, 10] was > 15 µM and the IC50 [4, 12] was > 15 µM. The IC50 [5, 11] was 0.65 µM.
With CC(C)[C@H](C1CN(C)C1)N1CC2(CCN(c3ncnc4sc(CC(F)(F)F)cc34)C2)C1 [Compound 196] the IC50 [1, 9] was 1.1 µM, the IC50 [3, 10] was > 15 µM and the IC50 [4, 12] was > 15 µM. The IC50 [5, 11] was 0.3 µM.
CC(C)C(c1cnn(C(C)C)c1)N1CC2(CCN(c3ncnc4sc(CC(F)(F)F)cc34)C2)C1 (stereo not shown) [Compound 214] was tested, and the IC50 [1, 9] was 1.4 µM, the IC50 [3, 10] was > 15 µM and the IC50 [5, 11] was 0.76 µM.
In the case of CC[C@H](c1cnn(C)c1)N1CC2(CCN(c3ncnc4sc(CC(F)(F)F)cc34)C2)C1 [Compound 220], the IC50 [1, 9] is reported as 4.7 µM, the IC50 [3, 10] is reported as > 15 µM and the IC50 [4, 12] is reported as > 15 µM. The IC50 [5, 11] was 0.65 µM.
CC(C)[C@@H](c1cn[nH]c1)N1CC2(CCN(c3ncnc4sc(CC(F)(F)F)cc34)C2)C1 [Compound 245] was tested, and the IC50 [1, 9] was 2 µM, the IC50 [3, 10] was > 15 µM and the IC50 [5, 11] was 0.32 µM.
With CC(C)C[C@H](c1cnn(C)c1)N1CC2(CCN(c3ncnc4sc(CC(F)(F)F)cc34)C2)C1 [Compound 247] the IC50 [1, 9] was 2.1 µM, the IC50 [3, 10] was > 15 µM and the IC50 [4, 12] was > 15 µM. It also gave an IC50 [5, 11] of 0.45 µM.
With CC(C)C(N1CC2(CCN(c3ncnc4sc(CC(F)(F)F)cc34)C2)C1)C1(F)CNC1 (stereo not shown) [Compound 269] the IC50 [1, 9] was 4.6 µM, the IC50 [3, 10] was > 15 µM and the IC50 [5, 11] was 0.67 µM.
CC(C)[C@H](C1CNC1)N1CC2(CCN(c3ncnc4sc(CC(F)(F)F)cc34)C2)C1 [Compound 273] was tested, and the IC50 [1, 9] was 0.86 µM, the IC50 ([2]; averaged values over all measurements, read-out: Menin FP assay (IC50 (μM))) was 0.021 µM and the IC50 [3, 10] was 12 µM. It also gave an IC50 [4, 12] of 10.3 µM and an IC50 [5, 11] of 0.08 µM.
CC(C)[C@H](c1cnn(C)c1)N1CC2(CCN(c3ncnc4sc(CC(F)(F)F)cc34)C2)C1 [Compound 274] was tested, and the IC50 [1, 9] was 2.3 µM, the IC50 [3, 10] was > 15 µM and the IC50 [4, 12] was > 15 µM. It also gave an IC50 [5, 11] of 0.36 µM.
For CC(C)[C@@H](N1CC2(CCN(c3ncnc4sc(CC(F)(F)F)cc34)C2)C1)C1(F)CN(C)C1 [Compound 304a], the IC50 [1, 9] was 1.3 µM, the IC50 [3, 10] was > 15 µM and the IC50 [5, 11] was 0.44 µM.
In the case of CC(C)C(CC1CCNCC1)N1CC2(CCN(c3ncnc4sc(CC(F)(F)F)cc34)C2)C1 (stereo not shown) [Compound 315], the IC50 [1, 9] is reported as 1.5 µM, the IC50 [3, 10] is reported as > 15 µM and the IC50 [5, 11] is reported as 0.32 µM.
In the case of CC(C)C(CC1CCN(C)CC1)N1CC2(CCN(c3ncnc4sc(CC(F)(F)F)cc34)C2)C1 (stereo not shown) [Compound 316], the IC50 [1, 9] is reported as 0.96 µM, the IC50 [3, 10] is reported as > 3.7 µM and the IC50 [5, 11] is reported as 0.4 µM.
